Assay results: US11446233B2, “Serums for reducing lipid peroxidation” (L'OREAL, priority 2020, dated 2022)

Assay: Ingredient metering: LC-UV concentration of active ingredients on storage
Type: physicochemical
Conditions: for Concentration of ingredient in inventive formula, T1M 45° C / Concentration of ingredient in inventive formula, T1M TA: in Inventive Ex. 1, 1 month; for Concentration of ingredient in inventive formula, T1M TA / Concentration of ingredient in inventive formula, T2M TA: temperature ambient; for Concentration of ingredient in inventive formula, T2M 45° C / Concentration of ingredient in inventive formula, T2M TA: in Inventive Ex. 1, 2 months; for Concentration of ingredient in inventive formula, T0 M: in Inventive Ex. 1, month 0
Description: The levels of Ascorbic Acid, Ferulic Acid, Salicylic Acid, and Silybum marianum Extract (Active Silybin) were metered.

Concentration of ingredient in inventive formula, T1M 45° C [%] | Concentration of ingredient in inventive formula, T1M TA [%] | Concentration of ingredient in inventive formula, T2M 45° C [%] | Concentration of ingredient in inventive formula, T2M TA [%] | Concentration of ingredient in inventive formula, T0 M [%] | SMILES
14.72 | 15.04 | 14.00 | 15.60 | 15.2 | O=C1O[C@H]([C@@H](O)CO)C(O)=C1O [Ascorbic Acid]
0.49 | 0.50 | 0.47 | 0.49 |  | O=C(O)c1ccccc1O [Salicylic Acid]
0.43 | 0.48 | 0.39 | 0.50 | 0.46 | COc1cc(/C=C/C(=O)O)ccc1O [Ferulic Acid]
